Assay results reported in article PMC9487510, “A Novel Oral GyrB/ParE Dual Binding Inhibitor Effective against Multidrug-Resistant Neisseria gonorrhoeae and Other High-Threat Pathogens” (Antimicrobial Agents and Chemotherapy, 2022).
Values after ≈ are worked out from the molar mass of the structure shown. Read-outs that look alike come from different tables or passages of the source.

Assays:
[1] = test system: N. gonorrhoeae clinical isolates; assay: MIC, agar dilution (CLSI); format: cell-based, Neisseria gonorrhoeae; details: Neisseria gonorrhoeae; for MIC: read-out: MIC
C. difficile = assay: MIC, toxigenic C. difficile panel (CLSI); format: cell-based, Clostridioides difficile
[2] = test system: E. coli, Pseudomonas aeruginosa, Klebsiella pneumoniae, Acinetobacter baumannii, Francisella tularensis, Yersinia pestis; assay: organism not typed; format: cell-based
[3] = Liver microsome stability, mouse; format: in vitro ADME; details: male, CD-1, mouse, liver microsomes, pH 7.4
Protocol: Liver microsome stability assays were performed by BioDuro Inc. Human and mouse (CD-1 male) liver microsomes were used. […] Next, 50 μL of reaction buffer was added to solution and mixed via pipetting up and down 6 times. At each time point of 0, 30, and 60 min, an aliquot of 20 μL was removed from each tube. Liver microsomes (LM) working solution was prepared in 0.05 M phosphate reaction buffer (pH = 7.4) to a final concentration of 1.27 mg/mL. NADPH solution was prepared in 0.05 M phosphate buffer to afford a 5 mM buffer solution. […] After vortexing and incubating for 5 min (37°C), 50 μL of NADPH solution was added and mixed via pipetting. At each time point of 0, 5, 15, 30, and 60 min, an aliquot of 20 μL was removed from each tube. Next, 250 μL of quenching solution was aliquoted to quench the reaction, which was then vortexed for 1 min and placed on ice for 40 min. After centrifugation at 4,000 × g for 15 min, 100 μL of supernatant was transferred using a multichannel pipette to 0.65-mL tubes. Samples were diluted with MeOH: H2O (1:1) as necessary. Samples were analyzed by high-pressure liquid chromatography coupled to tandem mass spectrometry (LC/MS/MS) performed on a Sciex Applied Biosystems Qtrap 4000 triple-quadrupole mass spectrometer coupled to a Shimadzu HPLC system to quantify the remaining compound. Data were processed using Analyst software (version 1.4.2; Applied Biosystems Sciex). […] Metabolite identification on the microsomal extracts was performed using a Q-Exactive HRMS coupled with an Ultimate 3000 HPLC system and a Kinetix C18 2.1 × 50-mm 2.6-μm HPLC column.

hERG K+ channel = hERG K+ channel (Homo sapiens, UniProt Q12809); assay: hERG inhibition, whole-cell patch clamp in HEK-293 cells; details: pH 7.4
Chain of hERG K+ channel (Q12809 whole entry): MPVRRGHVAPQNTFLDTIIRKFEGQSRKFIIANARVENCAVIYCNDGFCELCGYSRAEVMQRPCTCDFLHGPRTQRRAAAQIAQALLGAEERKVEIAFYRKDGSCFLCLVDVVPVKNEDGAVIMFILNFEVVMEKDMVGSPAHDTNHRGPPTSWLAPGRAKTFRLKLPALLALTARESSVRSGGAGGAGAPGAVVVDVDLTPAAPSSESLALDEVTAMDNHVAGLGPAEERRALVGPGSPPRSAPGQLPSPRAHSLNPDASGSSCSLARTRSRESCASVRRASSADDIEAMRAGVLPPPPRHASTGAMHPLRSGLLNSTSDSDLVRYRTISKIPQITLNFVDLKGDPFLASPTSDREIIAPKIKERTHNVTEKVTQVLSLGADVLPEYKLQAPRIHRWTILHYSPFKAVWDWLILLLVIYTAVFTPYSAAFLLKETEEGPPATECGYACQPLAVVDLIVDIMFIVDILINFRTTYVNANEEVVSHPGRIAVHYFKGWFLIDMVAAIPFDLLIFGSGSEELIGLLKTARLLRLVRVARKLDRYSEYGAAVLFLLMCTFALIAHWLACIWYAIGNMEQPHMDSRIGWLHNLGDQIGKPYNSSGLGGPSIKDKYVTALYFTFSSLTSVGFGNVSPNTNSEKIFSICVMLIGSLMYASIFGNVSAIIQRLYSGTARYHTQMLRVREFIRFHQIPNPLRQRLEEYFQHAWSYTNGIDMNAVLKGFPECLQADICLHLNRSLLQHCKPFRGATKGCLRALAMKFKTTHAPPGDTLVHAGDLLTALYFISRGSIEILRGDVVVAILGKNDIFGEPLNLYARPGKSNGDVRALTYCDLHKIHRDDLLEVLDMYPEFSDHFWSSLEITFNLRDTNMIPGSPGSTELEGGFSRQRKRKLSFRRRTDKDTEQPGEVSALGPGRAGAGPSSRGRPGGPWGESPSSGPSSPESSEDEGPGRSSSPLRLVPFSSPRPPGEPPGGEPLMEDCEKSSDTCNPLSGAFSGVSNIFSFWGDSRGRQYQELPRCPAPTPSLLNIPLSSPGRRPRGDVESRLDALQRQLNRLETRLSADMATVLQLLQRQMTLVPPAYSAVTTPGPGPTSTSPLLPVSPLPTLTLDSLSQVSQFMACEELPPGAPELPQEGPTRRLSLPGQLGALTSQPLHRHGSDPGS

Compound: CNc1cc(F)cc2c1[nH]c1nc(Oc3cnc(C)nc3)nc(N3CCC4(CC3)CO[C@@H](CO)C4)c12 [JSF-2414]
- MIC ([1]; strain CDC54 (GCREF2012 052)): 3.9 ng/mL (≈ 0.0079 µM)
- MIC ([1]; strain CDC55 (GCREF2013 001)): 7.8 ng/mL (≈ 0.0158 µM)
- MIC ([1]; strain CDC56 (GCREF2013 002)): 3.9 ng/mL (≈ 0.0079 µM)
- MIC ([1]; strain CDC57 (GCREF2013 003)): 3.9 ng/mL (≈ 0.0079 µM)
- MIC ([1]; strain CDC58 (GCREF2013 004)): 2 ng/mL (≈ 0.00405 µM)
- MIC ([1]; strain CDC59 (GCREF2013 044)): 2 ng/mL (≈ 0.00405 µM)
- MIC ([1]; strain CDC60 (GCREF2013 005)): 7.8 ng/mL (≈ 0.0158 µM)
- MIC ([1]; strain CDC61 (GCREF2013 006)): 7.8 ng/mL (≈ 0.0158 µM)
- MIC ([1]; strain CDC62 (GCREF2013 007)): 16 ng/mL (≈ 0.0324 µM)
- MIC ([1]; strain CDC63 (GCREF2013 008)): 7.8 ng/mL (≈ 0.0158 µM)
- MIC ([1]; strain CDC64 (GCREF2013 009)): 16 ng/mL (≈ 0.0324 µM)
- MIC ([1]; strain CDC65 (GCREF2013 010)): 7.8 ng/mL (≈ 0.0158 µM)
- MIC ([1]; strain CDC66 (GCREF2013 011)): 16 ng/mL (≈ 0.0324 µM)
- MIC ([1]; strain CDC67 (GCREF2013 014)): 7.8 ng/mL (≈ 0.0158 µM)
- MIC ([1]; strain CDC68 (GCREF2013 016)): 2 ng/mL (≈ 0.00405 µM)
- MIC ([1]; strain CDC69 (GCREF2013 017)): 2 ng/mL (≈ 0.00405 µM)
- MIC ([1]; strain CDC70 (GCREF2013 018)): 3.9 ng/mL (≈ 0.0079 µM)
- MIC ([1]; strain CDC71 (GCREF2013 019)): 16 ng/mL (≈ 0.0324 µM)
- MIC ([1]; strain CDC72 (GCREF2013 020)): 7.8 ng/mL (≈ 0.0158 µM)
- MIC ([1]; strain CDC73 (GCREF2013 021)): 16 ng/mL (≈ 0.0324 µM)
- MIC ([1]; strain CDC74 (GCREF2013 022)): 16 ng/mL (≈ 0.0324 µM)
- MIC ([1]; strain CDC75 (GCREF2013 023)): 7.8 ng/mL (≈ 0.0158 µM)
- MIC ([1]; strain CDC76 (GCREF2013 024)): 7.8 ng/mL (≈ 0.0158 µM)
- MIC ([1]; strain CDC77 (GCREF2013 025)): 7.8 ng/mL (≈ 0.0158 µM)
- MIC ([1]; strain CDC78 (GCREF2013 026)): 0.5 ng/mL (≈ 0.00101 µM)
- MIC ([1]; strain CDC79 (GCREF2013 027)): 3.9 ng/mL (≈ 0.0079 µM)
- MIC ([1]; strain CDC80 (GCREF2013 028)): 3.9 ng/mL (≈ 0.0079 µM)
- MIC ([1]; strain CDC81 (GCREF2013 029)): 3.9 ng/mL (≈ 0.0079 µM)
- MIC ([1]; strain CDC82 (GCREF2013 031)): 7.8 ng/mL (≈ 0.0158 µM)
- MIC ([1]; strain CDC83 (GCREF2013 032)): 16 ng/mL (≈ 0.0324 µM)
- MIC ([1]; strain CDC84 (GCREF2013 033)): 7.8 ng/mL (≈ 0.0158 µM)
- MIC ([1]; strain CDC86 (GCREF2013 035)): 7.8 ng/mL (≈ 0.0158 µM)
- MIC ([1]; strain CDC87 (GCREF2013 036)): 3.9 ng/mL (≈ 0.0079 µM)
- MIC ([1]; strain CDC88 (GCREF2013 037)): 7.8 ng/mL (≈ 0.0158 µM)
- MIC ([1]; strain CDC89 (GCREF2013 038)): 3.9 ng/mL (≈ 0.0079 µM)
- MIC ([1]; strain CDC90 (GCREF2013 039)): 7.8 ng/mL (≈ 0.0158 µM)
- MIC ([1]; strain CDC91 (GCREF2013 040)): 7.8 ng/mL (≈ 0.0158 µM)
- MIC ([1]; strain CDC92 (GCREF2013 041)): 3.9 ng/mL (≈ 0.0079 µM)
- MIC ([1]; strain CDC93 (GCREF2013 042)): 3.9 ng/mL (≈ 0.0079 µM)
- MIC ([1]; strain CDC94 (GCREF2013 043)): 7.8 ng/mL (≈ 0.0158 µM)
- MIC ([1]; strain CDC95 (GCREF2013 045)): 7.8 ng/mL (≈ 0.0158 µM)
- MIC ([1]; strain CDC96 (GCREF2013 046)): 2 ng/mL (≈ 0.00405 µM)
- MIC ([1]; strain CDC97 (GCREF2013 047)): 3.9 ng/mL (≈ 0.0079 µM)
- MIC ([1]; strain CDC98 (GCREF2013 048)): 7.8 ng/mL (≈ 0.0158 µM)
- MIC ([1]; strain CDC99 (GCREF2013 012)): 7.8 ng/mL (≈ 0.0158 µM)
- MIC ([1]; strain CDC100 (GCREF2013 015)): 3.9 ng/mL (≈ 0.0079 µM)
- MIC50 ([1]; 96 clinical isolates, read-out: MIC50): 3.9 ng/mL (≈ 0.0079 µM)
- MIC90 ([1]; 96 clinical isolates, read-out: MIC90): 7.8 ng/mL (≈ 0.0158 µM)
- MIC (C. difficile; Clostridioides difficile, BAA1805, strain BAA-1805, read-out: MIC): 0.031 µg/mL (≈ 0.0628 µM)
- MIC range (C. difficile; N = 9, toxigenic panel): 7.8 to 63 ng/mL
- MIC [2]: > 0.5 µg/mL
- microsomal CLint at 1 μM ([3]; read-out: MLM Clint): 11.9 µL/min/mg
- half-life at 1 μM ([3]; read-out: MLM t1/2): 58.2 min
- IC50 at 3 min (hERG K+ channel): > 50 µM
